Experiments:
[1] = system: Ctenocephalides Felis (Cat Flea); assay: Activity in vitro against Ctenocephalides felis (cat flea), Assay B; conditions: Ctenocephalides felis; at 10 ppm in bovine blood; % mortality at 48 hours post infestation; read-out: efficacy (EC50)
Description: Activity In Vitro Against Ctenocephalides Felis (Cat Flea)—Assay B
Test compounds are added to organic bovine blood contained in an artificial feeding container. Compounds with known insecticidal activity are included to serve as positive controls. Newly emerged unfed adult fleas from a laboratory colony are aspirated into each vial. The test cages are maintained using the artificial feeding apparatus to allow ingestion of compound. Fleas are evaluated for % mortality at 48 hours post infestation. Fleas showing normal movement and/or jumping ability are considered viable and those showing no movement are scored as dead.

[2] = system: Lucilla Cuprina (Australian Sheep Blowfly); assay: Activity in vitro against Lucilla cuprina (Australian sheep blowfly), Assay B; parameters: species or system L. cuprina; conditions: Lucilia cuprina; at 10 ppm; larvae, compound in bovine serum, percent mortality at 24 hours; read-out: efficacy (EC50)
Description: Activity In Vitro Against Lucilla Cuprina (Australian Sheep Blowfly)—Assay B
Compound formulated in bovine serum is dispensed into scintillation. A dental cotton roll is added to each vial to absorb the compound solution. L. cuprina larvae are added to each treatment vial. The vials are capped and held for 24 hours in an environmental chamber at appropriate temperature, humidity and light/dark cycles. Evaluations are only made at 24 hours because dead larvae after 24 hours may be cannibalized by the remaining live ones. Vials are examined for percent mortality.

[3] = system: Ctenocephalides Felis (Cat Flea); assay: Activity in vitro against Ctenocephalides felis (cat flea), Assay A; conditions: Ctenocephalides felis; at 100 ppm; adult fleas fed on treated blood for 24 h; dead fleas counted; read-out: efficacy (EC80)
Description: Activity In Vitro Against Ctenocephalides Felis (Cat Flea)—Assay A
A mixed adult population of fleas is placed in a suitably formatted 96-well plate allowing fleas to access and feed on treated blood via an artificial feeding system. Fleas are fed on treated blood for 24 h, after which the compound effect is recorded. Insecticidal activity is determined on the basis of the number of dead fleas recovered from the feeding system.

[4] = system: Lucilla Cuprina (Australian sheep blowfly); assay: Activity in vitro against Lucilla cuprina (Australian sheep blowfly), Assay A; conditions: Lucilia cuprina, 96 h; at 32 ppm; eggs on agar-based medium, 4 days at 28° C. and 60% relative humidity; read-out: efficacy (EC80)
[5] = system: Rhipicephalus sanguineus (Dog Tick); assay: Activity in vitro against Rhipicephalus sanguineus (dog tick), Assay A, contact test; conditions: Rhipicephalus sanguineus, 168 h, at 100 ppm, adult ticks, 28° C. and 80% relative humidity for 7 days, read-out: efficacy (EC80)
[6] = system: Engorged Female Rhipicephalus microplus (Cattle Tick); assay: Activity in vitro against engorged female Rhipicephalus microplus (cattle tick), contact test; conditions: 672 h, organophosphorous-resistant Ultimo strain, evaluation 28 days later on mortality, oviposition and hatched larvae, read-out: efficacy (EC80)
Summary of the method: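 Contact test: wells pre-coated with compound serial dilutions, 10 engorged females of organophosphate-resistant Ultimo strain per well, triplicates. Incubated 28 °C, 80% RH; mortality, oviposition and larval hatch assessed after 28 days.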

[7] = system: Rhipicephalus sanguineus Nymphs; assay: Activity in vivo against Rhipicephalus sanguineus nymphs on Mongolian gerbils; conditions: topical, 0 h, pour on application day 0, tick number reduction vs placebo, Abbott's formula, read-out: efficacy (EC90)
Description: On day 0, gerbils are treated with the test compound at a given dose by pour on application. On day +1 (+2), the animals are infested with nymphs of R. sanguineus. Ticks are left on the animals until full repletion. Seven days after infestation nymphs dropped off fully engorged are collected and counted. They are kept until molting to also evaluate growth regulating activity of the test compound. Efficacy in killing (and growth regulating) is expressed as a tick number (and molted tick number) reduction in comparison with a placebo treated group, using the Abbott's formula:
n=number of live ticks. T=treated group. Co=control/placebo group.

Lice (Polyplax serrata) = assay: Activity in vivo against lice (Polyplax serrata) in mice (topical); conditions: pour-on application, live lice on day +4 and +14, Henderson & Tilton formula, read-out: efficacy (EC90)
Summary of the method: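 Naturally infested mice get formulated compound once by pour-on on day 0. Live lice are counted under a binocular on days +4 and +14. Efficacy is calculated by Henderson & Tilton from pre- vs post-treatment counts on the same mouse, corrected against placebo (empty formulation) mice.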

`C[C@@H](c1ncnn1-c1ncc(F)cn1)N(CC1CC1)C(=O)c1cc(C(F)(F)F)cc(C(F)(F)F)c1` [Example 64, N-(Cyclopropylmethyl)-N-[(1S)-1-[2-(5-fluoropyrimidin-2-yl)-1,2,4-triazol-3-yl]ethyl]-3,5-bis(trifluoromethyl)benzamide] showed a pest or weed control at 10 ppm [1] of over 50% and a pest or weed control at 10 ppm [2] of over 50%.

For `CC(c1ncnn1-c1ncccn1)N(CC1CC1)C(=O)c1cc(C(F)(F)F)nc(C(F)(F)F)c1` (centres unmarked) [Example 51, N-(Cyclopropylmethyl)-N-[1-(2-pyrimidin-2-yl-1,2,4-triazol-3-yl)ethyl]-2,6-bis(trifluoromethyl)pyridine-4-carboxamide], the pest or weed control at 10 ppm [1] was over 50% and the pest or weed control at 10 ppm [2] was over 50%.

Compound `C[C@H](NC(=O)c1cc(C(F)(F)F)cc(C(F)(F)F)c1)c1ncnn1-c1ncccn1` [Example 66, N-[(1S)-1-(2-Pyrimidin-2-yl-1,2,4-triazol-3-yl)ethyl]-3,5-bis(trifluoromethyl)benzamide] has a pest or weed control at 10 ppm [1] of over 50% and a pest or weed control at 10 ppm [2] of over 50%.

`CC(c1ncnn1-c1ncccn1)N(CC1CC1)C(=O)c1cc(Cl)cc(C(F)(F)F)c1` (centres unmarked) [Example 40, 3-Chloro-N-(cyclopropylmethyl)-N-[1-(2-pyrimidin-2-yl-1,2,4-triazol-3-yl)ethyl]-5-(trifluoromethyl)benzamide] gave a pest or weed control at 100 ppm [3] of over 80%, a pest or weed control at 32 ppm [4] of over 80% and a pest or weed control at 100 ppm [5] of over 80%. The pest or weed control at 200 ppm [6] was over 80%, the inhibition in vivo at 32 mg/kg [7] was over 90% and the inhibition in vivo at 32 mg/kg (Lice (Polyplax serrata)) was over 90%.

`CCN(C(=O)c1cc(C(F)(F)F)cc(C(F)(F)F)c1)C(C)c1ncnn1-c1ncccn1` (centres unmarked) [Example 53, N-Ethyl-N-[1-(2-pyrimidin-2-yl-1,2,4-triazol-3-yl)ethyl]-3,5-bis(trifluoromethyl)benzamide] gave a pest or weed control at 10 ppm [1] of over 50% and a pest or weed control at 10 ppm [2] of over 50%.

`CC(NC(=O)c1cc(C#N)cc(C(F)(F)F)c1)c1ncnn1-c1ncccn1` (centres unmarked) [Example 57, 3-Cyano-N-[1-(2-pyrimidin-2-yl-1,2,4-triazol-3-yl)ethyl]-5-(trifluoromethyl)benzamide] was tested, and the pest or weed control at 10 ppm [1] was over 50% and the pest or weed control at 10 ppm [2] was over 50%.

For `CC(c1ncnn1-c1ncccn1)N(CCC(F)(F)F)C(=O)c1cc(C(F)(F)F)cc(C(F)(F)F)c1` (centres unmarked) [Example 20, N-[1-(2-Pyrimidin-2-yl-1,2,4-triazol-3-yl)ethyl]-3,5-bis(trifluoromethyl)-N-(3,3,3-trifluoropropyl)benzamide], the pest or weed control at 100 ppm [3] was over 80%, the pest or weed control at 32 ppm [4] was over 80% and the pest or weed control at 100 ppm [5] was over 80%. For the same compound, the pest or weed control at 200 ppm [6] was over 80%, the inhibition in vivo at 32 mg/kg [7] was over 90% and the inhibition in vivo at 32 mg/kg (Lice (Polyplax serrata)) was over 90%.

`CC(c1ncnn1-c1ncccn1)N(CC#N)C(=O)c1cc(C(F)(F)F)cc(C(F)(F)F)c1` (centres unmarked) [Example 56, N-(Cyanomethyl)-N-[1-(2-pyrimidin-2-yl-1,2,4-triazol-3-yl)ethyl]-3,5-bis(trifluoromethyl)benzamide] was tested, and the pest or weed control at 10 ppm [1] was over 50% and the pest or weed control at 10 ppm [2] was over 50%.

Work on `CC(c1ncnn1-c1ncccn1)N(C)C(=O)c1cc(C(N)=S)cc(C(F)(F)F)c1` (centres unmarked) [Example 72, 3-Carbamothioyl-N-methyl-N-[1-(2-pyrimidin-2-yl-1,2,4-triazol-3-yl)ethyl]-5-(trifluoromethyl)benzamide] yielded a pest or weed control at 10 ppm [1] of over 50% and a pest or weed control at 10 ppm [2] of over 50%.

`CC(c1ncnn1-c1ncccn1)N(CCF)C(=O)c1cc(C(F)(F)F)cc(C(F)(F)F)c1` (centres unmarked) [Example 19, N-(2-Fluoroethyl)-N-[1-(2-pyrimidin-2-yl-1,2,4-triazol-3-yl]ethyl]-3,5-bis(trifluoromethyl)benzamide] showed a pest or weed control at 100 ppm [3] of over 80%, a pest or weed control at 32 ppm [4] of over 80% and a pest or weed control at 100 ppm [5] of over 80%. For the same compound, the pest or weed control at 200 ppm [6] was over 80%, the inhibition in vivo at 32 mg/kg [7] was over 90% and the inhibition in vivo at 32 mg/kg (Lice (Polyplax serrata)) was over 90%.

From patent US10287276B2, “Heteroaryl-1,2,4-triazole and heteroaryl-tetrazole compounds for controlling ectoparasites” (Elanco Tiergesundheit AG, priority 2016, dated 2019)
